Assay results reported in patent US8889615B2, “Methods for promoting epithelialization and healing of chronic wounds” (New York University, priority 2009, dated 2014).
“Also recorded” adds a separate entry of the source.

Experiments:
protein kinase C (PKC) = conditions: rat brain; cited from earlier work
GSK3β = assay: Phospho-GSK3β (Ser 9) Western blot in keratinocytes; type: cell-based, human; conditions: DEX 1 μM with GO6979 400 μM, RU486 10 μM or U73122 10 μM
Procedure: Extracts for immunoblotting were prepared from a subconfluent 100 mm plate of normal HEK treated with DEX (1 μM), Calphostine C and RU486 (10 μM) or an equal volume of ethanol vehicle 4 hours prior to lysis. Cells were placed on ice; washed twice with phosphate-buffer saline (PBS); and lysed in 0.5 ml of modified RIPA buffer containing 50 mM Hepes, pH 7.5, 150 mM NaCl, 1 mM EDTA, 1 mM EGTA, 1 mM NaF, 1% Triton X-100, 10% glycerol, and additional protease and phosphatase inhibitors (1 mM phenylmethylsulfonyl fluoride, 20 mM glycerophosphate, 8 mM sodium pyrophosphate, 1 μg/ml leupeptin, 1 μg/ml pepstatin A, and 1 μg/ml aprotinin (Roche, Indianapolis, Ind.)) through fine needle aspiration. Lysates were centrifuged at 13,000 rpm for 10 min at 4° C. The soluble supernatants were normalized for total protein concentration using the Bradford protein assay, and the samples were stored at −20° C. Cell extracts were boiled for 5 minutes in Leammli sample buffer, were separated by 10% SDS-PAGE and transferred to nitrocellulose membrane (VWR, Batavia, Ill.) on 100 V for 1 hour in Tris/glycine transfer buffer. The membranes were blocked for 30 minutes in 5% bovine serum albumin in blocking solution (Tris-buffered saline (TBS, pH 7.4) at room temperature and then incubated in blocking solution with primary antibody at 4° C. overnight using 1:500 of serum for anti-c-myc antibody (Santa Cruz). The membranes were washed three times for 5 minutes with TBS and 0.1% Triton X-100 and twice with TBS and incubated for 1 hour at room temperature with horseradish peroxidase-conjugated secondary antibody (Santa Cruz, Calif.). Blots were then washed three times for 5 minutes with TBS and 0.1% Triton X-100 and developed using Super Signal West Pico Chemiluminescent substrate (Pierce, Rockford, Ill.) and exposed on x-ray film (Eastman Kodak Co. Bio Max MR-Film) according to the manufacturer's instructions. For loading control we used anti b-tubulin antibody (Santa Cruz, Santa Cruz, Calif.). Western blot quantification was done using Total Lab Program (Non-linear dynamics Inc., NC). […]

[1] = system: Ca^2+-independent PKC d-, e-, and z-isozymes; conditions: even at micromolar levels; cited from earlier work
c-myc = c-myc Western blot in HEK; type: cell-based, human; conditions: DEX 1 μM with Calphostine C or RU486 10 μM, 4 hours
Procedure: Extracts for immunoblotting were prepared from a subconfluent 100 mm plate of normal HEK treated with DEX (1 μM), Calphostine C and RU486 (10 μM) or an equal volume of ethanol vehicle 4 hours prior to lysis. Cells were placed on ice; washed twice with phosphate-buffer saline (PBS); and lysed in 0.5 ml of modified RIPA buffer containing 50 mM Hepes, pH 7.5, 150 mM NaCl, 1 mM EDTA, 1 mM EGTA, 1 mM NaF, 1% Triton X-100, 10% glycerol, and additional protease and phosphatase inhibitors (1 mM phenylmethylsulfonyl fluoride, 20 mM glycerophosphate, 8 mM sodium pyrophosphate, 1 μg/ml leupeptin, 1 μg/ml pepstatin A, and 1 μg/ml aprotinin (Roche, Indianapolis, Ind.)) through fine needle aspiration. Lysates were centrifuged at 13,000 rpm for 10 min at 4° C. The soluble supernatants were normalized for total protein concentration using the Bradford protein assay, and the samples were stored at −20° C. Cell extracts were boiled for 5 minutes in Leammli sample buffer, were separated by 10% SDS-PAGE and transferred to nitrocellulose membrane (VWR, Batavia, Ill.) on 100 V for 1 hour in Tris/glycine transfer buffer. […] Western blot quantification was done using Total Lab Program (Non-linear dynamics Inc., NC).

β-catenin = β-catenin nuclearization in primary human epidermal keratinocytes (immunostaining, β-catenin y142); type: cell-based; conditions: 0.1 μmol/L dexamethasone; 200 nM Calphostin C or 10 μM RU486
Procedure: Topical GC treatment of human skin cepsimens was performed by daily applica-tion of Cormax (Clobetasol Propionate Cream 0.05%; Oclassen Pharmaceuticals, Inc.) using a sterile Q-tip applicator. Samples were fixed in formalin and processed for paraffin embedding following by sectioning to obtain 5-μm-thick sections. Keratinocytes were grown on chamber slides to 70% confluency (Lab-Tek, Naperville, Ill.) and treated with 0.1 μmol/L dexamethasone (Sigma) and incubated in the presence or absence of 200 nM Calphostin C or 10 μM RU486. Cells were fixed in 70% methanol for 10 minutes and permeabilized with 0.1% Triton X-100 for 10 minutes. Human tissues were stained with β-catenin antibody β-catenin phosphorylated Ab (Tyr- 142) (AbCam) at 1:1500 dilution in 5% bovine serum albumin and visualized using a secondary fluorescein isothiocyanate anti-mouse IgG antibody 1:150 (Sigma). All sections were mounted with mounting media. All negative controls were prepared by substitution of the primary antibody with an irrelevant antibody. The sections were analyzed using a Carl Zeiss microscope (Carl Zeiss, Thornwood, N.Y.) and digital images were collected using Adobe TWAIN—32 program.

[2] = system: LEF/TCF-mediated transcription; assay: SuperTopFlash Tcf/Lef luciferase reporter assay in primary human keratinocytes; type: cell-based; conditions: 24 hours; for dexamethasone-mediated induction of LEF/TCF-mediated transcription: Dexamethasone 1 μM with RU486 10 μM or Calphostine C 200 nM
Procedure: Primary human keratinocytes were plated into 6-well plates and grown to 70% confluence in defined serum-free keratinocyte medium supplemented with epidermal growth factor and bovine pituitary extract (keratinocyte-SFM, GIBCO). Prior to transfection cells were transferred to basal serum—free medium (GIBCO) for 6 h, and then transfected with Tcf/Lef transcriptional activation reporter construct SuperTopFlash (Masckauchán, Mol. Biol. Cell, 17(12):5163-5172 (2006)) containing Tcf responsive elements and renilla-luciferase construct. Transfections were performed in triplicates using 3 μg of reporter plasmid, 0.2 μg of renilla-luciferase plasmid with a FuGene 6 transfection reagent (Roche), following manufacturer's instructions for procedure. Cells were incubated at 37° C. for over night with transfection cocktail and than treated with Dexamethasone (1 μM), RU486 (10 μM) and Calphostine C (200 nM) for 24 hours. Cell lysates were prepared the next day and both firefly and renilla luciferase activities were evaluated using Dual-Luciferase Reporter Assay System (Promega, Madison, Wis.). Samples were read in a luminometer and values were normalized for transfection efficiency using renilla-luciferase activity.

[3] = system: Primary human keratinocytes; assay: Keratinocyte migration, wound scratch assay; type: cell-based
Procedure: Primary human keratinocytes were grown to 80% confluency. Twenty-four hours before the experiment cells were transferred to basal KBM medium (Life Technologies, Inc., Grand Island, N.Y.). Before the scratch, cells were treated with 8 μg/ml mitomycin C (ICN, Irvine, Calif.) for 1 hour and washed with basal media. Scratches were performed as previously described (Lee, et al., J Mol. Biol., 345:1083-1097 (2005)). Cells were incubated with 20 μmol/L LiCl or 25 ng/ml of EGF for 24 and 48 hours, rephotographed, and cell migration was quantified as previously described (Lee, et al., J. Mol. Biol., 345:1083-1097 (2005); Zavadil. et al., EMBO J., 23:1155-1165 (2004)). Thirty measurements were taken for each experimental condition and distance coverage by cells moving into the scratch wound area was quantified. Three images were analyzed per condition, per time point, and averages and standard deviations were calculated.

wounded human skin [4] = assay: Human skin ex vivo wound model with LiCl; type: cell-based; conditions: 4 mm punch wound, air-liquid interface, 20 mmol/L LiCl, 4 days
From the text: Wounds were created using 4-mm punch biopsies through the reticular dermis and a rim of cells participating in wound healing was collected by re-punching around the initial wounded area. Each time point was collected in parallel with an unwounded skin specimen of the same donor. All specimens were collected and either stored in RNAlater (Ambion, Austin, Tex.) or frozen in OCT compound (Tissue Tek, Reading, Calif.) for immunocytochemistry. To activate β-catenin, wounded skin was maintained on the air-liquid interface in the presence or absence of 20 mmol/L LiCl (Shimm, et al., J. Biol. Chem., 278:19674-19681 (2003)). Wounds were quantified by planimetry as described previously (Stojadinovic, et al., Am. J. Pathol., 167(1):59-69 (2005)).

wounded human skin [5] = assay: Human skin wound model, topical treatment, epithelialization by planimetry; type: cell-based; conditions: topical DEX 1 μM + Calphostine C 200 μM, 6 days
Procedure: Wounds were created using 4-mm punch biopsies through the reticular dermis and incubated on the air-liquid interface, as previously described. Immediately upon wounding cells were treated topically with dexamethasone (DEX) (1 μM), Calphostine C (CC) (200 μM) and the combination, DEX+CC and maintained on the air-liquid interface for 6 days. All specimens were frozen in OCT compound (Tissue Tek, Reading; Calif.) for immunocytochemistry. Wounds were quantified by planimetry as described previously (Tomic-Canic, et al., Wound Repair Regen., 15(1):71-9 (2007)).

protein kinase C = conditions: cited from earlier work
PLC = conditions: human platelets and neutrophils; read-out: IC50, agonist-induced PLC activation; cited from earlier work

Row | Structure (SMILES) | dexamethasone-mediated phosphorylation of GSK3β (GSK3β) | GCs-mediated c-myc activation (c-myc) | GC-mediated nuclearization (activation) of β-catenin (β-catenin) | dexamethasone-mediated induction of LEF/TCF-mediated transcription [2] | also measured
1 | Cn1c2ccccc2c2c3c(c4c5ccccc5n(CCC#N)c4c21)CNC3=O [Go 6976, 12-(2-Cyanoethyl)-6,7,12,13-tetrahydro-13-methyl-5-oxo-5H-indolo(2,3-a)pyrrolo(3,4-c)-carbazole] | block | – | – | – | IC50 (protein kinase C (PKC)): 7.9 nM; effect on kinase activity of Ca^2+-independent PKC d-, e-, and z-isozymes [1]: does not affect
2 | CC#C[C@]1(O)CC[C@H]2[C@@H]3CCC4=CC(=O)CCC4=C3[C@@H](c3ccc(N(C)C)cc3)C[C@@]21C [RU486, (11b,17b)-11-(4-(Dimethylamino)phenyl)-17-hydroxy-17-(1-propynyl)estra-4,9-dien-3-one] | completely abolished; also recorded: block | blocked | blocked | abolished | –
3 | [Cl-].[Li+] [LiCl] | – | – | – | – | keratinocyte migration ([3]; 20 μmol/L LiCl or 25 ng/ml of EGF, 24 and 48 hours): inhibited; EGF-stimulated keratinocyte migration ([3]; LiCl with EGF): efficiently blocked; LEF/TCF-mediated transcription (TopFlash activity) ([2]; agent alone, Dexamethasone 1 μM): increase activity; wound healing (planimetry, histology) (wounded human skin [4]): completely inhibited
4 | COc1c(CC(C)OC(=O)Oc2ccc(O)cc2)c2c3c(CC(C)OC(=O)c4ccccc4)c(OC)c(=O)c4c(O)cc(OC)c(c5c(OC)cc(O)c(c1=O)c52)c43 (stereo not drawn) [Calphostin C] | – | blocked | blocked | blocked | dexamethasone-mediated inhibition of epithelialization (wounded human skin [5]): rescues; IC50 (protein kinase C): 50 nM
5 | COc1ccc2c(c1)CCC1C2CC[C@@]2(C)C1CC[C@@H]2NCCCCCCN1C(=O)C=CC1=O (stereo partly drawn) [U-73122] | inhibits | – | – | – | IC50 (PLC): 1000 to 2100 nM
